In patent US8969542B2, “HPV polyepitope constructs and uses thereof” (priority 2007, dated 2015):
Where no end group is shown, it is not given here.

What was measured:
[1] = biological target: HLA A2601 (Homo sapiens, UniProt P04439, A114D/A173T/A270S/D101N/D185E/E277Q/E87N/F33Y/G231S/I121R/I218V/K168Q/L180W/L300P/L318F/P208A/P217A/Q86R/Q94H/R138Q/S129P/T187R/T323A/T345S/V100A/V358M); test: HLA class I competition binding assay using soluble HLA
[2] = biological target: HLA A2902 (Homo sapiens, UniProt P04439, A270S/D101N/D185E/E176V/E277Q/E87Q/F33T/G231S/H175R/I121M/I218V/I322F/K168Q/L300P/L318F/M331R/P208A/P217A/Q86L/T323A/T345S/V100A/V358M); test: as above
[3] = biological target: HLA A3002 (Homo sapiens, UniProt P04439, D101N/D140H/D185E/E176R/F33S/G80R/H175R/K168Q/Q94H/R138E/R41S/V100E); test: as above
[4] = biological target: HLA A0201 (Homo sapiens, UniProt P04439, D140Y/D185E/D98H/E176V/E277Q/G131W/G231S/I119V/I121R/I166T/I218V/L300P/L318F/N151K/N90K/P208A/P217A/Q86G/Q94H/R138H/R169H/T345S); test: as above
[5] = biological target: HLA A0203 (Homo sapiens, UniProt P04439, A173T/D140Y/D185E/D98H/E277Q/G131W/G231S/I119V/I121R/I166T/I218V/L180W/L300P/L318F/N151K/N90K/P208A/P217A/Q86G/Q94H/R138H/R169H/T345S); test: as above
[6] = biological target: HLA A6802 (Homo sapiens, UniProt P04439, A269V/D140Y/D185E/E176V/E277Q/E87N/F33Y/G231S/I121R/I166T/I218V/L180W/L300P/L318F/N151K/P208A/P217A/Q86R/R138H/R169H/S129P/T345S/V36M); test: as above
[7] = biological target: HLA A1101 (Homo sapiens, UniProt P04439, A114D/D185E/E176A/F33Y/L180Q/S129P/T187R); test: as above
[8] = biological target: HLA A3101 (Homo sapiens, UniProt P04439, A270S/D185E/E176V/E277Q/F33T/G231S/G80R/H175R/I121M/I218V/I322F/K168Q/L300P/L318F/M331R/P217A/Q94H/R138Q/T323A/T345S/T97I/V358M); test: as above
[9] = biological target: HLA A6801 (Homo sapiens, UniProt P04439, A269V/D185E/E176V/E277Q/E87N/F33Y/G231S/I121M/I166T/I218V/L180W/L300P/L318F/N151K/P208A/P217A/Q86R/R169H/T345S); test: as above
[10] = biological target: DRB1*0901 (Homo sapiens, UniProt P01903+P01911, A100R/A103E/D57H/D86V/F55Y/F60I/F76Y/I96F/K127E/L162R/M171V/P40D/Q125H/Q99R/R33Q/R42F/S133A/S66N/T210M/V115G/W38K/Y107V/Y59G/Y89S); test: biochemical
[11] = biological target: DRB5*0101 (DR2w2beta-2) (Homo sapiens, UniProt P01903+Q30154); test: biochemical
[12] = biological target: HLA A3301 (Homo sapiens, UniProt P04439, A270S/D185E/E176V/E277Q/E87N/F33T/G231S/H175R/I121M/I218V/I322F/K168Q/K210R/L300P/L318F/M331R/P217A/Q86R/Q94H/R138Q/T323A/T345S/T97I/V358M/Y195H); test: HLA class I competition binding assay using soluble HLA
[13] = biological target: T1, HLA A0301 (Homo sapiens, UniProt P04439); test: as above
T1 construct: endogenous in cells

[14] = biological target: HLA A0202 (Homo sapiens, UniProt P04439, D140Y/D185E/D98H/E176V/E277Q/G131W/G231S/I119L/I121R/I166T/I218V/L180W/L300P/L318F/N151K/N90K/P208A/P217A/Q67R/Q86G/Q94H/R138H/R169H/T345S); test: as above
[15] = biological target: HLA A0206 (Homo sapiens, UniProt P04439, D140Y/D185E/D98H/E176V/E277Q/F33Y/G131W/G231S/I119V/I121R/I166T/I218V/L300P/L318F/N151K/N90K/P208A/P217A/Q86G/Q94H/R138H/R169H/T345S); test: as above

CC(C)C[C@H](NC(=O)CNC(=O)[C@@H](NC(=O)[C@H](CC(N)=O)NC(=O)[C@@H](NC(=O)[C@H](CC(C)C)NC(=O)[C@H](CCCCN)NC(=O)[C@H](CCC(=O)O)NC(=O)[C@H](CC(C)C)NC(=O)[C@@H](N)[C@@H](C)O)[C@@H](C)O)[C@@H](C)O)C(=O)N[C@@H](Cc1ccc(O)cc1)C(=O)O [compound 26]
IC50 [1]: 0.265 µM
IC50 [2]: 2.38 µM
IC50 [3]: 0.476 µM

CC[C@H](C)[C@H](NC(=O)[C@H](CC(=O)O)NC(=O)[C@H](CCC(N)=O)NC(=O)[C@H](CC(C)C)NC(=O)[C@@H](N)CO)C(=O)N[C@@H](CCC(=O)O)C(=O)N[C@H](C(=O)N[C@H](C(=O)N[C@@H](CS)C(=O)N[C@H](C(=O)O)C(C)C)[C@@H](C)O)[C@@H](C)CC [compound 30]
IC50 [4]: 0.153 µM
IC50 [5]: 0.038 µM
IC50 [6]: > 20 µM

CC[C@H](C)[C@H](N)C(=O)N[C@@H](CO)C(=O)N[C@@H](Cc1ccccc1)C(=O)N[C@@H](C)C(=O)NCC(=O)N[C@H](C(=O)N[C@H](C(=O)N[C@H](C(=O)N[C@@H](CCCCN)C(=O)O)[C@@H](C)O)C(C)C)[C@@H](C)CC [compound 57]
IC50 [7]: 0.0016 µM
IC50 [8]: 0.115 µM
IC50 [9]: 0.016 µM

CC[C@H](C)[C@H](NC(=O)CNC(=O)[C@@H](NC(=O)[C@H](CCCCN)NC(=O)[C@H](Cc1ccc(O)cc1)NC(=O)[C@H](Cc1c[nH]c2ccccc12)NC(=O)[C@H](Cc1ccc(O)cc1)NC(=O)[C@@H](N)CC(C)C)[C@@H](C)O)C(=O)N[C@@H](CO)C(=O)N[C@@H](CC(N)=O)C(=O)N[C@H](C(=O)N[C@@H](CO)C(=O)N[C@@H](CCC(=O)O)C(=O)N[C@H](C(=O)N[C@@H](Cc1ccc(O)cc1)C(=O)O)C(C)C)[C@@H](C)CC [compound 89]
IC50 [10]: 0.09 µM

CC[C@H](C)[C@H](NC(=O)[C@@H](NC(=O)[C@H](CC(C)C)NC(=O)[C@H](CC(=O)O)NC(=O)[C@@H](NC(=O)[C@H](Cc1ccccc1)NC(=O)[C@H](C)NC(=O)[C@H](Cc1ccccc1)NC(=O)[C@H](CC(=O)O)NC(=O)[C@H](CC(C)C)NC(=O)[C@@H](N)C(C)C)[C@@H](C)O)[C@@H](C)O)C(=O)N[C@H](C(=O)N[C@@H](Cc1ccc(O)cc1)C(=O)N[C@@H](CCCNC(=N)N)C(=O)N[C@@H](CC(=O)O)C(=O)O)C(C)C [compound 111]
IC50 [11]: > 20 µM

CC[C@H](C)[C@H](NC(=O)[C@H](Cc1c[nH]cn1)NC(=O)[C@H](C)NC(=O)[C@H](Cc1ccc(O)cc1)NC(=O)[C@H](CC(C)C)NC(=O)[C@@H](NC(=O)[C@H](C)NC(=O)[C@@H]1CCCN1C(=O)[C@H](CCCCN)NC(=O)[C@@H](NC(=O)[C@H](CC(C)C)NC(=O)[C@@H](NC(=O)[C@H](CCCCN)NC(=O)[C@@H](N)Cc1ccccc1)[C@@H](C)O)[C@@H](C)CC)[C@@H](C)O)C(=O)N[C@@H](CCC(N)=O)C(=O)O [compound 115]
IC50 [11]: 1 µM

AATKYPLLK [compound 17]
IC50 [7]: 0.02 µM
IC50 [8]: > 20 µM
IC50 [12]: > 20 µM
IC50 [9]: > 20 µM

ATCVSHRGLY [compound 25]
IC50 [1]: 0.646 µM

ATTPIIHLK [compound 58]
IC50 [13]: 0.01 µM
IC50 [7]: 0.0012 µM
IC50 [8]: 0.034 µM
IC50 [12]: > 20 µM
IC50 [9]: 0.0025 µM

AVMCRHYKR [compound 78]
IC50 [13]: 0.311 µM
IC50 [7]: 0.038 µM
IC50 [9]: 0.029 µM

CLYLHIQSL [compound 6]
IC50 [14]: 0.045 µM
IC50 [15]: 0.1 µM
IC50 [6]: 1.78 µM

ELDPVDLLCY [compound 71]
IC50 [1]: 2.11 µM
IC50 [3]: > 20 µM

FIYIPLFVI [compound 52]
IC50 [4]: 0.026 µM
IC50 [5]: 0.047 µM
IC50 [15]: 0.0081 µM
IC50 [6]: 0.157 µM

FLFTDLTIV [compound 53]
IC50 [14]: 0.0013 µM
IC50 [5]: 0.0035 µM
IC50 [15]: 0.02 µM
IC50 [6]: 1.9 µM

FVVYRDSIPK [compound 36]
IC50 [13]: 3.44 µM
IC50 [7]: 2.5 µM
IC50 [8]: 0.008 µM
IC50 [12]: 0.473 µM
IC50 [9]: 0.176 µM

FVYIPLFLI [compound 8]
IC50 [4]: 0.206 µM
IC50 [14]: 0.323 µM
IC50 [5]: 0.063 µM
IC50 [6]: 0.251 µM

GTLGIVCPV [compound 11]
IC50 [4]: 0.02 µM

ILYAHIQCL [compound 27]
IC50 [14]: 0.0085 µM
IC50 [15]: 0.236 µM
IC50 [6]: > 20 µM

KLLEKLLCI [compound 49]
IC50 [5]: 0.0024 µM

KLLSKLLCV [compound 7]
IC50 [4]: 0.031 µM

KLTNKGICDL [compound 54]
IC50 [14]: 0.44 µM
IC50 [5]: 0.585 µM
IC50 [15]: 0.484 µM
IC50 [6]: > 20 µM

KLTNTGLYNV [compound 31]
IC50 [14]: 0.0029 µM
IC50 [15]: 0.083 µM
IC50 [6]: 0.688 µM

KVSEFRWYRY [compound 59]
IC50 [13]: 0.213 µM
IC50 [8]: 0.003 µM
IC50 [12]: 0.338 µM
IC50 [9]: 0.192 µM

LQDKILDHY [compound 67]
IC50 [1]: 5 µM
IC50 [3]: 0.836 µM

LSQMVQWAY [compound 1]
IC50 [1]: 6.45 µM
IC50 [3]: 0.00093 µM

LTDVSIACVY [compound 69]
IC50 [1]: 8.2 µM

QTEPDTSNY [compound 48]
IC50 [1]: > 20 µM

SLVFLLCFSV [compound 74]
IC50 [4]: 0.0085 µM
IC50 [6]: 0.02 µM

STAAALYWYR [compound 56]
IC50 [13]: 0.198 µM
IC50 [7]: 0.01 µM
IC50 [8]: 0.0056 µM
IC50 [12]: 0.047 µM
IC50 [9]: 0.012 µM

STWHWTGCNK [compound 80]
IC50 [7]: 0.0028 µM
IC50 [12]: 0.428 µM

SVICFVNSK [compound 16]
IC50 [7]: 0.0022 µM
IC50 [12]: 0.051 µM
IC50 [9]: 0.0054 µM

SVYGETLEK [compound 83]
IC50 [7]: 0.0095 µM
IC50 [8]: 6.51 µM
IC50 [9]: 0.0072 µM

SVYGTTLER [compound 60]
IC50 [13]: 0.022 µM
IC50 [7]: 0.007 µM
IC50 [8]: 0.075 µM
IC50 [12]: 0.853 µM
IC50 [9]: 0.004 µM

TLHDIILECV [compound 9]
IC50 [4]: 0.0036 µM
IC50 [14]: 0.00054 µM
IC50 [5]: 0.0019 µM
IC50 [15]: 0.092 µM
IC50 [6]: 2.95 µM

TLQEIVLHV [compound 77]
IC50 [14]: 0.03 µM
IC50 [5]: 0.0051 µM
IC50 [6]: 2.46 µM

TLYAHIQCL [compound 72]
IC50 [4]: 0.034 µM

TVYVFCFLL [compound 29]
IC50 [4]: 0.175 µM
IC50 [14]: 0.587 µM
IC50 [5]: 0.769 µM
IC50 [15]: 0.026 µM

VVLLLVRYK [compound 12]
IC50 [13]: 0.0063 µM
IC50 [7]: 0.0041 µM
IC50 [8]: 0.0001 µM
IC50 [12]: 0.0061 µM
IC50 [9]: 0.076 µM

YQFAFKDLCV [compound 76]
IC50 [14]: 0.0013 µM
IC50 [5]: 0.0042 µM
IC50 [15]: 0.01 µM
IC50 [6]: 3.7 µM

YVVWDSIYYI [compound 73]
IC50 [5]: 0.248 µM
IC50 [15]: 0.02 µM
IC50 [6]: 0.03 µM
